Results published in patent US20100021931A1, “Fluorescence based reporter construct for the direct detection of TGF-beta receptor activation and modulators thereof” (Technische Universitat Dresden, priority 2008, published 2010).

Experiments:
homozygous tkv mutants = experiment: Rescue of tkv mutant flies by the ubiquitin-promoter reporter transgene; format: in vivo, Drosophila; conditions: expressed from the ubiquitin promoter in transgenic flies
From the text: Using P-element mediated transgenesis with the plasmids described above transgenic fly lines were generated in a w^1118 background expressing the TIPF fusion protein under control of the ubiquitously expressed Ubiquitin promoter or in a tissue specific manner from the UAS promotor. For both transgenic construct insertions on all three major chromosomes were obtained. Insertions on the X chromosome were balanced with FM6 w^−, 2nd chromosome insertion were balanced with CyO and 3rd chromosomal insertions with TM3, Sb.

[1] = tested on: phosphorylated Smad1/5 transcription factors; experiment: phospho-SMAD1/5/8 antibody staining of fixed embryos; format: in vivo, Danio rerio; conditions: 30% epiboly
From the text: While at that stage there is not yet a morphological marker for the prospective dorsal or ventral sides of the embryo, BMP pathway activation can be detected by accumulation of phosphorylated Smad1/5 transcription factors in the prospective ventral nuclei. […] As shown in FIG. 3 (top), fluorescence of the TIPF reporter (left) coincides with the region of increased pSmad staining (center).

[2] = tested on: zebrafish BMP receptor ALK3; experiment: Zebrafish ALK3 reporter in zebrafish assays according to example 1; format: in vivo; conditions: assays as in example 1
From the text: To generate the zebrafish ALK3 reporter construct, the Tkv CDS was excised from the TIPF reporter (as constructed in example 1) with PstI and EcoRI to obtain the linearized expression vector without the TGF-beta receptor according to SEQ ID No. 22. In this vector the corresponding full length cDNA encoding the zebrafish ALK3 according to SEQ ID No. 2 was cloned, which was amplified from a custom cDNA library using primers carrying EcoRI (5′primer) and NsiI (3′primer).
Zebrafish assays were performed according to example 1.

Chain of zebrafish BMP receptor ALK3 (as listed by the source): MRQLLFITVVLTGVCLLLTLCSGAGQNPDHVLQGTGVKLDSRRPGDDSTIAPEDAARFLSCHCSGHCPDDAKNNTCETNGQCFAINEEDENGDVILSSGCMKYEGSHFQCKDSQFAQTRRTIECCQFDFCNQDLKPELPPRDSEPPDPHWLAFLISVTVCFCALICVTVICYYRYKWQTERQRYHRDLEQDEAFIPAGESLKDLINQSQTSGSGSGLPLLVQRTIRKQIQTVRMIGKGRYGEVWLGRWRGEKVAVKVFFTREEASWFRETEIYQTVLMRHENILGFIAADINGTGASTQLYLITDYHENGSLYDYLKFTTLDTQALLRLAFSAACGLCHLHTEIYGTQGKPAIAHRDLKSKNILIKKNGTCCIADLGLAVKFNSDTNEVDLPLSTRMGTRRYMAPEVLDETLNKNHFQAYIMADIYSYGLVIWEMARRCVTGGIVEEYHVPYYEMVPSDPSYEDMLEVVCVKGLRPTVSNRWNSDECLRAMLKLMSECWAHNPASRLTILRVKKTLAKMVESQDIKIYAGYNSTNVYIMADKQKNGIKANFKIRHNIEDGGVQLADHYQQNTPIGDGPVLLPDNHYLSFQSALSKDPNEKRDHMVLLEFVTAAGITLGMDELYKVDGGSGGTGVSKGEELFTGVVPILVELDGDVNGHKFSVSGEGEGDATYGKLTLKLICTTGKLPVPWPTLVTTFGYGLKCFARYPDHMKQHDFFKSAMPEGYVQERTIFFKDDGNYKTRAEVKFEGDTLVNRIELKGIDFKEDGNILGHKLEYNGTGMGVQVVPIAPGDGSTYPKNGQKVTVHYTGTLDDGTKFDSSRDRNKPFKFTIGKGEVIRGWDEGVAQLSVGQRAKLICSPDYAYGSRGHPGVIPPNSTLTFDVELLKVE

Row | Substance | rescue of lethality of homozygous tkv mutants (homozygous tkv mutants) | reporter fluorescence versus region of phospho-Smad staining [1] | behaviour of reporter in zebrafish assays [2]
1 | TIPF reporter: fusion protein of Drosophila Tkv, an inverse pericam core and Drosophila FKBP12 linked by short linkers | rescue the lethality associated with homozygous tkv mutants to full adult survival | coincided with the region of BMP pathway activation | 
2 | zebrafish ALK3 reporter: Inverse Pericam core and Drosophila FKBP12 cassette fused to the zebrafish BMP receptor ALK3 |  |  | behaved like the fly version used in example 1
